Reference: patent US10590365B2, “Compounds for a controlled release of active molecules” (FIRMENICH SA, priority 2013, dated 2020)

What was measured:
[1] = test system: Propionibacterium acnes ATCC 6919; assay: Incubation of pro-perfume glucuronide mixture with skin bacteria; remaining conjugate by LC-MS; type: cell-based; conditions: After 5 days; for Glucuronide-conjugates remaining after incubation with Propionibacterium acnes (in percentage), Average: average of incubations 1-3; for Glucuronide-conjugates remaining after incubation with Propionibacterium acnes (in percentage): blank fixed as 100%
Method: (§1) The liberation of perfuming alcohols from the present invention's compounds of formula (I) was tested in vitro during incubation with defined skin bacteria strains.
(§2) c) Bacterial solutions: Two underarm bacterial isolates, Propionibacterium acnes ATCC 6919 and Staphylococcus warneri DSM 20316 (identified by 16S rDNA sequencing by Deutsche Sammlung von Mikroorganismen and ZellKulturen DSMZ, Germany), were cultivated on SCH agar at 37° C. during 72 h in anaerobic conditions and on TSA at 37° C. during 24 h, respectively.
One isolated colony of P. acnes from the pure primary culture on SCH agar was inoculated on a new SCH agar and incubated at 37° C., 72 h in anaerobic conditions. After incubation, the whole culture was dissociated by shaking in 20 ml of NaCl 0.9% then centrifuged 10 min at 5000 rpm at room temperature. The pellet was washed in NaCl 0.9% and concentrated two times in NaCl 0.9%.
(§3) A pro-perfume glucuronides mixture containing menthol glucuronide (6 mg/kg), phenethylol β-glucuronide (10.75 mg/kg) and raspberry ketone β-glucuronide (13 mg/kg) in water was incubated with either: • 500 μL of the previously described bacterial solution • 10 μL of commercial enzymes β-glucuronidase/arylsulfatase from Helix pomatia (RocheDiagnostic, Indianapolis, USA) and 490 μL of NaCl 0.9% as a positive control • 500 μl of NaCl 0.9% as a negative controlfor the incubation with bacteria.
(§4) Each solution was prepared in duplicate (in glass vials).
(§5) The vials were placed in a heating block at 37° C. under gentle stirring from 1 to 7 days depending on the bacteria solutions. At the end of the incubation time, vials were cooled down to room temperature, 150 μL was mixed with 50 μL of LC-MS solvent B, filtered through acrodisc and 1 μL was injected on LC-MS (peak areas considered were measured in SIM mode according to their respective molecular weights). Comparisons were made between glucuronides (HESI−) or glucosides (HESI+) areas in incubated solutions and glucuronides (HESI−) or glucosides (HESI+) areas in the blanks (fixed as 100%).

[2] = test system: Staphylococcus warneri DSM 20316; assay: Incubation of pro-perfume conjugates with skin bacteria; remaining conjugate by LC-MS; type: cell-based
Method: as §1, §2
Similarly, one colony of S. warneri from the pure primary culture on TSA was inoculated on a new TSA and incubated for 24 h at 37° C. After incubation, the whole culture was dissociated by shaking in 20 ml of NaCl 0.9% then centrifuged 15 min at 5000 rpm, 4° C. The pellet was washed in NaCl 0.9% and concentrated two times in NaCl 0.9%.
as §3, §4, §5

[3] = Table 2, After 1 day, incubation 1
[4] = Table 2, After 1 day, incubation 2
[5] = Table 3, After 1 day, incubation 1
[6] = Table 3, After 1 day, incubation 2
[7] = Table 3, After 5 day, incubation 1
[8] = Table 3, After 5 day, incubation 2

Structure (SMILES)	Glucuronide-conjugates remaining after incubation with Propionibacterium acnes (in percentage), Average [1] [%]	Glucuronide-conjugates remaining after incubation with Propionibacterium acnes (in percentage) ([1]; incubation 1) [%]	Glucuronide-conjugates remaining after incubation with Propionibacterium acnes (in percentage) ([1]; incubation 2) [%]	Glucuronide-conjugates remaining after incubation with Propionibacterium acnes (in percentage) ([1]; incubation 3) [%]	Glucuronide-conjugates remaining after incubation with S. warneri (in percentage), Average ([2]; Table 2, After 1 day) [%]	Glucuronide-conjugates remaining after incubation with S. warneri (in percentage) [2, 3] [%]	Glucuronide-conjugates remaining after incubation with S. warneri (in percentage) [2, 4] [%]	Glucuronide-conjugates remaining after incubation with S. warneri (in percentage), Average ([2]; Table 3, After 1 day) [%]	Glucuronide-conjugates remaining after incubation with S. warneri (in percentage) [2, 5] [%]	Glucuronide-conjugates remaining after incubation with S. warneri (in percentage) [2, 6] [%]	Glucuronide-conjugates remaining after incubation with S. warneri (in percentage), Average ([2]; Table 3, After 5 day) [%]	Glucuronide-conjugates remaining after incubation with S. warneri (in percentage) [2, 7] [%]	Glucuronide-conjugates remaining after incubation with S. warneri (in percentage) [2, 8] [%]
CC1CCC(C(C)C)C(OC2O[C@H](C(=O)O)[C@@H](O)[C@H](O)[C@H]2O)C1 (some centres unmarked) [p-menthan-3-ol, glucopyranosiduronic acid 1-menthyl]	7	5	9	7	0	1	0						
CC(=O)CCc1ccc(O[C@@H]2O[C@H](C(=O)O)[C@@H](O)[C@H](O)[C@H]2O)cc1 [(4-hydroxyphenyl)-2-butanone-β-D-glucopyranosiduronic acid]	58	61	58	57	0	0	0						
C=CCc1ccc(O[C@@H]2O[C@H](C(=O)O)[C@@H](O)[C@H](O)[C@H]2O)c(OC)c1 [β-D-glucopyranosiduronic acid 2-methoxy-4-(2-propen-1-yl)phenyl]								100	130	120	0	0	0
COc1cc(C=O)ccc1O[C@@H]1O[C@H](C(=O)O)[C@@H](O)[C@H](O)[C@H]1O [β-D-glucopyranosiduronic acid 4-formyl-2-methoxyphenyl]								100	84	96	0	0	0
CC1CCC(C(C)C)C(O)C1 (centres unmarked) [menthol]								74	72	77	34	36	31
